Test [1] concerns CRL-7250 cells. In words: qHTS cell viability (CellTiter-Glo, 72 h; primary screen), control cell line. The test is classed as cell-based. In general terms: qHTS replaces the single test concentration by a dilution series.
The subject of test [2] is VN-MCC cell lines (MCC13, MCC26, UISO). The experiment in a line: qHTS cell viability, VN-MCC cell lines as a group (mean AUC, VN.MCC.avg). The test is classed as cell-based, human.
Test [3] concerns MCC13 cells (VN-MCC). In words: qHTS cell viability (CellTiter-Glo, 72 h; primary and follow-up small molecule screen). In kind it is cell-based, human.
The test system of test [4] is WAGA cells (VP-MCC). Described as above. In kind it is cell-based, human.
Test [5] has as its system NIH-3T3 cells. In words: qHTS cell viability (CellTiter-Glo, 72 h; primary screen), control cell line. The test is classed as cell-based, mouse.
Test [6] relates to UISO cells (VN-MCC). The experiment in a line: qHTS cell viability (CellTiter-Glo, 72 h; primary and follow-up small molecule screen). The test is classed as cell-based, human.
The test system of test [7] is MKL-2 cells (VP-MCC). The test is described as above. The test is classed as cell-based, human.
The subject of test [8] is control cell lines (HACAT, HEK293T, CRL-7250, NIH-3T3). The experiment in a line: qHTS cell viability, control cell lines as a group (mean AUC, Control.avg). The test is classed as cell-based.
For test [9], the system named is HEK293T cells. The experiment in a line: qHTS cell viability (CellTiter-Glo, 72 h; primary screen), control cell line. In kind it is cell-based, human.
Test [10] relates to MCC cell lines (WAGA, MKL-1, MKL-2, MCC13, MCC26, UISO). In words: qHTS cell viability, all six MCC cell lines as a group (mean AUC, MCC.avg). The test is classed as cell-based, human.
Test [11] deals with six MCC cell lines and four control cell lines. In words: qHTS cell viability, all 10 cell lines screened. In kind it is cell-based.
Test [12] relates to HACAT cells. In words: qHTS cell viability (CellTiter-Glo, 72 h; primary screen), control cell line. The test is classed as cell-based, human.
For test [13], the system named is MKL-1 cells (VP-MCC). In words: qHTS cell viability (CellTiter-Glo, 72 h; primary and follow-up small molecule screen). In kind it is cell-based, human.
For test [14], the system named is VP-MCC cell lines (WAGA, MKL-1, MKL-2). In words: qHTS cell viability, VP-MCC cell lines as a group (mean AUC, VP.MCC.avg). The test is classed as cell-based, human.
Test [15] has as its system MCC26 cells (VN-MCC). In words: qHTS cell viability (CellTiter-Glo, 72 h; primary and follow-up small molecule screen). The test is classed as cell-based, human.
The mark [16] stands for this setting: MIPE library, 11-point DRC, control cell line, sheet S2E.
Setting [17] is: MIPE library, 11-point DRC, sheet S2E.

Where two headings read alike, the source gives them in different places.

The results in this text go back to article PMC11822212, “High-throughput screening identifies Aurora kinase B as a critical therapeutic target for Merkel cell carcinoma” (Nature Communications, 2025).

As for `C[C@@H]1CN(CCCn2c3ccccc3c3ccccc32)C[C@H](C)N1.Cl.Cl` [Rimcazole dihydrochloride], the CRL7250_AUC in [1] (NPC library, qHTS dose-response AUC, CRL7250 control) is on record as 463.168. The compound further had a VN-MCC_Avg_AUC in test [2] (NPC library, mean AUC of VN-MCC cell lines) of 450.226. Further, the Control-VN-MCC in [2] (NPC library, therapeutic window: Control avg AUC minus VN-MCC avg AUC) is 0.27. This compound yielded an MCC13_AUC in test [3] (NPC library, qHTS dose-response AUC, MCC13) of 472.84. Also, the WAGA_AUC in test [4] (NPC library, qHTS dose-response AUC, WAGA) is 396.152. Besides, in [5] (NPC library, qHTS dose-response AUC, NIH3T3 control), the NIH3T3_AUC came to 464.02. Moreover, the UISO_AUC in [6] (NPC library, qHTS dose-response AUC, UISO) is on record as 420.46. The compound further registered an MKL2_AUC in [7] (NPC library, qHTS dose-response AUC, MKL2) of 350.893. The Control_Avg_AUC in [8] (NPC library, mean AUC of control cell lines) is recorded as 450.496. The same compound yielded an HEK293T_AUC in [9] (NPC library, qHTS dose-response AUC, HEK293T control) of 453.163. The same compound gave an MCC_Avg_AUC in [10] (NPC library, mean AUC of six MCC cell lines) of 415.095. This compound also showed a Control-MCC in test [11] (NPC library, therapeutic window: Control avg AUC minus MCC avg AUC) of 35.4016. The HACAT_AUC in [12] (NPC library, qHTS dose-response AUC, HACAT control) is given as 421.634. In [13] (NPC library, qHTS dose-response AUC, MKL1), this compound came in with an MKL1_AUC of 392.844. The compound further yielded a VP-MCC_Avg_AUC in [14] (NPC library, mean AUC of VP-MCC cell lines) of 379.963. The same compound came in with a Control-VP-MCC in test [14] (NPC library, therapeutic window: Control avg AUC minus VP-MCC avg AUC) of 70.5333. The same compound had an MCC26_AUC in test [15] (NPC library, qHTS dose-response AUC, MCC26) of 457.379.

In [1], `C=CCC1([C@H](C)CCC)C(=O)NC(=O)NC1=O` [S-(-)-Secobarbital] registered a CRL7250_AUC of 492.207. Further, in [2], the Control-VN-MCC was determined as 48.3879 and the VN-MCC_Avg_AUC is 437.495. The compound also returned an MCC13_AUC in test [3] of 460.136. Moreover, the WAGA_AUC in [4] is 434.137. In addition, the NIH3T3_AUC in [5] is given as 473.981. This compound also yielded a UISO_AUC in [6] of 438.072. The same compound registered an MKL2_AUC in test [7] of 429.062. Further, in [8], the Control_Avg_AUC stood at 485.883. The HEK293T_AUC in test [9] is 485.529. The compound also had an MCC_Avg_AUC in test [10] of 436.213. The compound further gave a Control-MCC in test [11] of 49.6701. In test [12], this compound displayed an HACAT_AUC of 491.817. In addition, the MKL1_AUC in test [13] came out at 441.594. In test [14], the Control-VP-MCC was 50.9524 and the VP-MCC_Avg_AUC was found to be 434.931. This compound also displayed an MCC26_AUC in test [15] of 414.278.

As for `Cc1c(C)n(Cc2ccc(-c3ccccc3C(=O)O)cc2)c2ccc(C(=O)N[C@@H](C)c3ccc([N+](=O)[O-])cc3)cc12` [SR1664], the CRL7250_AUC in test [1] (setting [16]) came to 475.771; in [1] (area under the dose-response curve, CRL7250 control cells, AUC<450 = reduced viability) it was 475.77. The compound further had a Control-VN-MCC in [2] (MIPE library, Control AUC minus VN-MCC AUC (therapeutic window), sheet S2E) of 4.574. This compound also registered a VN-MCC_Avg_AUC in test [2] (MIPE library, mean AUC of VN-MCC cell lines, sheet S2E) of 472.695. The MCC13_AUC in test [3] (setting [17]) was determined as 475.759; in [3] (area under the dose-response curve, MCC13 cells, AUC<450 = reduced viability) it was 475.759. In addition, the WAGA_AUC was 329.214 in test [4] (setting [17]) and 329.214 in test [4] (area under the dose-response curve, WAGA cells, AUC<450 = reduced viability). Besides, the NIH3T3_AUC in test [5] (setting [16]) worked out at 484.086; in [5] (area under the dose-response curve, NIH3T3 control cells, AUC<450 = reduced viability), 484.086. Besides, the UISO_AUC in test [6] (setting [17]) worked out at 472.261; in test [6] (area under the dose-response curve, UISO cells, AUC<450 = reduced viability) it was 472.261. Besides, the MKL2_AUC came to 319.019 in test [7] (setting [17]) and 319.019 in test [7] (area under the dose-response curve, MKL-2 cells, AUC<450 = reduced viability). This compound registered a Control_Avg_AUC in test [8] (MIPE library, mean AUC of control cell lines, sheet S2E) of 477.269. The HEK293T_AUC is recorded as 470.145 in [9] (setting [16]) and 470.145 in [9] (area under the dose-response curve, HEK293T control cells, AUC<450 = reduced viability). The compound further gave an MCC_Avg_AUC in [10] (MIPE library, mean AUC of six MCC cell lines, sheet S2E) of 394.468. The compound also returned a Control-MCC in test [11] (MIPE library, Control AUC minus MCC AUC (therapeutic window), sheet S2E) of 82.8007. Moreover, the HACAT_AUC in test [12] (setting [16]) worked out at 479.075; in test [12] (area under the dose-response curve, HACAT control cells, AUC<450 = reduced viability) it was 479.075. For the same compound, the MKL1_AUC in [13] (setting [17]) was 300.491; in test [13] (area under the dose-response curve, MKL-1 cells, AUC<450 = reduced viability) it was 300.491. Further, the Control-VP-MCC in test [14] (MIPE library, Control AUC minus VP-MCC AUC (therapeutic window), sheet S2E) was 161.027. The VP-MCC_Avg_AUC in [14] (MIPE library, mean AUC of VP-MCC cell lines, sheet S2E) was 316.242. In addition, the MCC26_AUC is given as 470.066 in [15] (setting [17]) and 470.066 in test [15] (area under the dose-response curve, MCC26 cells, AUC<450 = reduced viability).
